Data reported in patent US20160287549A1, “NOVEL METHODS FOR TREATING NEURODEGENERATIVE DISEASES” (GENZYME CORPORATION, priority 2013, published 2016).

Legend:
[1] = cited from earlier work
SOD1-G93A mice [2] = test: Survival of symptomatic SOD1-G93A ALS mice; assay type: in vivo
Method: SOD1-G93A transgenic mice (also known as G93A-SOD1 mice) are currently the best available model to test experimental therapeutics for the treatment of ALS. […] For example, the transgenic mice present with progressive muscular atrophy and weakness. Neuroinflammation, demyelination, and motor neuron death are observed in the mice, and ultimately, the mice become paralyzed and have a shortened lifespan.
To evaluate the effectiveness of DHODH inhibitors in treating ALS, 10 mg/kg of teriflunomide was administered by oral gavage to 82 day old SOD1-G93A male mice.
(§1) In a second experiment, 20 mg/kg of teriflunomide was administered to 82 day old SOD1-G93A male and female mice (n=14/sex).
Male SOD1-G93A mice (n=14) were administered W19 (subcutaneous injection at 10 mg/kg for 5 consecutive days and then every 10 mg/kg every 2 weeks thereafter) was administered starting at 82 days of age. After 7 days, peripheral blood was collected and lymphocyte depletion was evaluated using flow cytometry.
Transgenic male (n=84) and female littermate (n=28) mice that express the mutant SOD1^G93A transgene at high-levels were divided to achieve cohort, sibling and sex matching amongst groups for these studies (Scott, S., et al. “Design, Power, and Interpretation of Studies in the Standard Murine Model of ALS.” Amyotrophic Lateral Sclerosis 9.1 (2008): 4-15. SCOPUS. Web. 18 Nov. 2013). Mutant SOD1 gene copy number and SOD1 protein expression were confirmed by PCR and western blot analysis. Animals were housed under light:dark (12:12 h) cycle and provided with food and water ad libitum. All procedures were performed using protocols approved by Genzyme Corporation's Institutional Animal Care and Use Committees.
Mice were scored into the following phases: presymptomatic (Pre-SYMP)=no visible motor abnormalities (i.e., normal hind limb splay); Symptomatic (SYMP)=abnormal hindlimb splay; End stage (ES)=onset of limb paralysis (typically hindlimb); and Moribund (MB)=unable to right themselves within 30 sec after being placed on their back.

SOD1-G93A mice [3] = test: Grip strength performance test in SOD1-G93A mice; assay type: in vivo; details: for grip strength loss (percent decline from baseline): 20 mg/kg oral gavage, baseline at 82 days, control 46.14-67.38% loss
Method: as §1
Testing of motor function using a grip strength device (Columbus Instruments, Columbus, Ohio) began at 60-70 days of age as previously described (Dodge, J. C. et al. (2008) 16:1056-1064). Each weekly session consisted of 4 tests per animal. Data shown represent percent decline in strength from baseline. Baseline measurements were made at 82 days of age. Percent reduction is grip strength is shown for vehicle treated mice scored as ES and age matched sibling mice treated with teriflunomide.

PfDHODH = PfDHODH (Plasmodium falciparum, UniProt Q08210); details: cited from earlier work
hDHODH = hDHODH (Homo sapiens, UniProt Q02127); details: cited from earlier work
[4] = test system: murine colon 38 tumor model; details: tissue-specific modulation of uridine nucleotide pools; cited from earlier work
L1210 murine leukemia = details: cited from earlier work

Chain of hDHODH (Q02127 whole entry): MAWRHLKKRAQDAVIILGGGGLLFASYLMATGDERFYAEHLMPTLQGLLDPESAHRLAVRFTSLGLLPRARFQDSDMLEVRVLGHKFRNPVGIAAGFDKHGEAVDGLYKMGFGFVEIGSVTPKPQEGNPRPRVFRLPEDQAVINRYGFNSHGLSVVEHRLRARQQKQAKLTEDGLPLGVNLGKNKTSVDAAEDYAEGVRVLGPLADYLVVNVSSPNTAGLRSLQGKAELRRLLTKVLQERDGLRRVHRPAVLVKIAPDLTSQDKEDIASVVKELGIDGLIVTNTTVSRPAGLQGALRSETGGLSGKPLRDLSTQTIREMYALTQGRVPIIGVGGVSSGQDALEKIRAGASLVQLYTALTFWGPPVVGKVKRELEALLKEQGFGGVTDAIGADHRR
Chain of PfDHODH (Q08210 24-569): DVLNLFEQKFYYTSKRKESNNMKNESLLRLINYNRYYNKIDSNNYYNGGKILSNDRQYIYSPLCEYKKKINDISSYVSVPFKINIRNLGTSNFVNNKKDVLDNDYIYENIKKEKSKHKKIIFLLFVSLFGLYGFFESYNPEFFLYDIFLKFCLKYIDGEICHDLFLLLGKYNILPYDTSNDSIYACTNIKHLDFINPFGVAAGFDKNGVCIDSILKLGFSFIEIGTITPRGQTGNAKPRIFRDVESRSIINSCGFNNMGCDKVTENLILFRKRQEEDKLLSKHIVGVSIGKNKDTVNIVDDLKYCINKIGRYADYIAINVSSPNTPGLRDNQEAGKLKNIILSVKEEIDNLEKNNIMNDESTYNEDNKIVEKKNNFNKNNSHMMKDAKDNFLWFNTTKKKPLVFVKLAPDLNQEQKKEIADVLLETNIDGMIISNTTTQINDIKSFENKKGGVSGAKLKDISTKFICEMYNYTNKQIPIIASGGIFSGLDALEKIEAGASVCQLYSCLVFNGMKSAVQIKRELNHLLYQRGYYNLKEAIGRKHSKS

For `C/C(O)=C(\C#N)C(=O)Nc1ccc(C(F)(F)F)cc1` [teriflunomide, (Z)-2-cyano-3-hydroxy-but-2-enoic acid-(4′-trifluoromethylphenyl)-amide], the solubility in acetone ([1]; acetone) is given as “sparingly soluble”, the solubility in ethanol ([1]; ethanol) is given as “slightly soluble” and the solubility in isopropanol ([1]; isopropanol) is given as “very slightly soluble”. For the same compound, the “solubility in polyethylene glycol” value ([1]; polyethylene glycol) was “slightly soluble”, the solubility in water ([1]; water) was “practically insoluble” and the “increase in survival as compared to control” value (SOD1-G93A mice [2]; 10 mg/kg oral gavage, 82 day old male SOD1-G93A mice) was 7 days. For the same compound, the median survival (SOD1-G93A mice [2]; 10 mg/kg oral gavage, 82 day old male SOD1-G93A mice, control 127 days, p<0.005) was 134 days, the median survival (SOD1-G93A mice [2]; 20 mg/kg oral gavage, 82 day old male and female SOD1-G93A mice, control 130 days, p<0.04) was 146.5 days and the “increase in median survival as compared to control” value (SOD1-G93A mice [2]; 20 mg/kg, 82 day old male and female SOD1-G93A mice) was 16.5 days. The “grip strength loss (percent decline from baseline)” value (SOD1-G93A mice [3]; female SOD1-G93A mice) was −24.06%, the “grip strength loss (percent decline from baseline)” value (SOD1-G93A mice [3]; male SOD1-G93A mice) was −20.14% and the “effect on muscle strength loss” value (SOD1-G93A mice [3]; 20 mg/kg, male and female SOD1-G93A mice) was “significantly slowed muscle strength loss”.

For `CCOC(=O)C(C#N)=CNc1ccc(C(=O)OCC)cc1` [Compound 60], the “PfDHODH(50 μM)” value (PfDHODH) is given as 2 ± 4 and the “hDHODH(50 μM)” value (hDHODH) is given as 2 ± 2.

In the case of `CCOC(=O)C(=CNc1cccc(C(=O)OCC)c1)C(=O)OCC` [Compound 58], the “PfDHODH(50 μM)” value (PfDHODH) is given as 0 ± 4 and the “hDHODH(50 μM)” value (hDHODH) is given as 5 ± 2.

In the case of `CCOC(=O)C(=CNc1ccc(C(=O)OCC)cc1)C(=O)OCC` [Compound 59], the “PfDHODH(50 μM)” value (PfDHODH) is listed as 15 ± 4 and the “hDHODH(50 μM)” value (hDHODH) is listed as 4 ± 2.

For `Cc1c(-c2ccc(-c3ccccc3F)cc2)nc2ccc(F)cc2c1C(=O)O` [Brequinar], the “effect on 5-fluorouracil antitumor activity” value [4] is listed as “potentiates 5-fluorouracil antitumor activity” and the anticancer activity (L1210 murine leukemia) is listed as “exhibits anticancer activity”.
